Assay results from patent publication US20240116985A1, “STAPLED PEPTIDES AND METHODS THEREOF” (priority 2020, published 2024).
Converted amounts (≈) assume the structure as drawn. Read-outs that look alike come from different tables or passages of the source.

Legend:
[1] = biological target: T1, beta-catenin/TCF4 engagement (Homo sapiens, UniProt P35222); assay: Nano-BRET target engagement assay (B-cat-Halo & TCF4-Luc in HEK293 cells); format: cell-based; conditions: absolute IC50; read-out: NanoBRET Abs IC50
T1 construct: expressed in transfected cells; host or cells: HEK293
T1 sequence (P35222 1-781): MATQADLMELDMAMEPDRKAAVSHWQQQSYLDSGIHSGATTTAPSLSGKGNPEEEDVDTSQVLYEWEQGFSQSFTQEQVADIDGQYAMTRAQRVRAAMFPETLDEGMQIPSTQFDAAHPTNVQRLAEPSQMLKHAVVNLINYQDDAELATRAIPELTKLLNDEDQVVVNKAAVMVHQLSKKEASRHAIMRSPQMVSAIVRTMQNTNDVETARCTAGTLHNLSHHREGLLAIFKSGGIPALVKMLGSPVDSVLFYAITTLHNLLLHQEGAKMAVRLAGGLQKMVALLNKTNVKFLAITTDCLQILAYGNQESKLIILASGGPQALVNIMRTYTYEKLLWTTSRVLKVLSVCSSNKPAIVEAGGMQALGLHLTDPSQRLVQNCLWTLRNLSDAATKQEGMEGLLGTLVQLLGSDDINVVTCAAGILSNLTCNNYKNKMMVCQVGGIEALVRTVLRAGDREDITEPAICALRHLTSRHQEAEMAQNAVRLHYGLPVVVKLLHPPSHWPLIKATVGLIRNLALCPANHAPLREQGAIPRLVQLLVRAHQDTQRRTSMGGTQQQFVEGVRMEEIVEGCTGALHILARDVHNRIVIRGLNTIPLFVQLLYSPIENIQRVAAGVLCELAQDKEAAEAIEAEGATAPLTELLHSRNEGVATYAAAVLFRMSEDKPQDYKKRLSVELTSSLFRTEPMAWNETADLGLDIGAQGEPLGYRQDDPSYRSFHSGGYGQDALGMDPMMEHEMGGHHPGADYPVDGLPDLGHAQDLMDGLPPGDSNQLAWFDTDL

[2] = biological target: T2, full-length beta-Catenin (Uniprot ID P35222) (Homo sapiens, UniProt P35222); assay: Fluorescence polarization IC50 (beta-catenin / 5FAM-TCF4 10-53 competition); format: binding; conditions: fluorescence polarization
T2 construct: 10 nM full-length beta-Catenin (Uniprot ID P35222)
T2 sequence (P35222 1-781): T1 sequence (P35222 1-781)

[3] = Solubility in PBS; format: physicochemical
Summary of the method: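 Solubility is derived from HPLC peak areas: the ratio of the PBS supernatant peak to a 50 μM DMSO peptide peak, times 50 uM.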

SMILES | IC50 [1] | IC50 ([2]; read-out: beta-Catenin FP IC50) | Solubility ([3]; Solubility (uM)) | Solubility [3] | IC50 ([2]; beta-catenin, read-out: FP EC50)
CC(=O)N1CCC[C@]12CC=CCCCC1(CCCC=CCCCOC(=O)N3CC[C@@](C(=O)N[C@@H](Cc4ccsc4)C(=O)N[C@@H](Cc4csc5ccccc45)C(=O)N[C@@H](CCC(N)=O)C(N)=O)(C3)NC(=O)[C@H]([C@@H](C)O)NC(=O)[C@H](Cc3ccccc3)NC(=O)[C@H](C)NC(=O)[C@H](C)NC(=O)[C@H]([C@@H](C)O)NC(=O)[C@H](CC(=O)O)NC1=O)NC(=O)[C@H](CC(C)(C)C)NC(=O)[C@H](CC(=O)O)NC2=O (stereo partly drawn) [I-1166, Ac-PL3-Asp-Npg-B5-Asp-Thr-Ala-Ala-Phe-Thr-PyrS2-3Thi-BztA-Gln-NH2] | 14600 nM | 14 nM | 14 µM (≈ 26.5 µg/mL) |  | 
CC(=O)N1CCC[C@]12CC=CCCCC1(CCCC=CCCCOC(=O)N3CC[C@@](C(=O)N[C@@H](Cc4ccccc4Cl)C(=O)N[C@@H](Cc4csc5ccccc45)C(=O)N[C@@H](CO)C(N)=O)(C3)NC(=O)[C@H]([C@@H](C)O)NC(=O)[C@H](Cc3ccccc3)NC(=O)[C@H](CC(C)C)NC(=O)[C@H](CC(C)C)NC(=O)[C@H](CC(=O)O)NC(=O)[C@H](CC(=O)O)NC1=O)NC(=O)[C@H](CC1CCCCC1)NC(=O)[C@H](CC(=O)O)NC2=O (stereo partly drawn) [I-1152, Ac-PL3-Asp-Cha-B5-Asp-Asp-Leu-Leu-Phe-Thr-PyrS2-2C1F-BztA-Ser-NH2] | 14200 nM | 65 nM |  | 10 µM (≈ 20 µg/mL) | 
CC(=O)N1CCC[C@]12CC=CCCCC1(CCCC=CCCCOC(=O)N3CC[C@@](C(=O)N[C@@H](Cc4ccccc4Cl)C(=O)N[C@@H](Cc4csc5ccccc45)C(=O)N[C@H](C(N)=O)[C@@H](C)O)(C3)NC(=O)[C@H](CO)NC(=O)[C@H](Cc3ccccc3)NC(=O)[C@H](C)NC(=O)[C@H](C)NC(=O)[C@H](CC(=O)O)NC(=O)[C@H](CC(=O)O)NC1=O)NC(=O)[C@H](Cc1ccccc1)NC(=O)[C@H](CC(=O)O)NC2=O (stereo partly drawn) [I-1141, Ac-PL3-Asp-Phe-B5-Asp-Asp-Ala-Ala-Phe-Ser-PyrS2-2C1F-BztA-Thr-NH2] | 27300 nM | 13 nM | 44 µM (≈ 84.2 µg/mL) |  | 
CC(=O)N1CCC[C@]12CC=CCCCC1(CCCC=CCCCOC(=O)N3CC[C@@](C(=O)N[C@@H](Cc4ccccc4)C(=O)N[C@@H](Cc4csc5ccccc45)C(=O)N[C@@H](CO)C(N)=O)(C3)NC(=O)[C@H]([C@@H](C)O)NC(=O)[C@H](Cc3ccccc3)NC(=O)[C@H](C)NC(=O)[C@H](C)NC(=O)[C@H]([C@@H](C)O)NC(=O)[C@H](CC(=O)O)NC1=O)NC(=O)[C@H](CC(C)(C)C)NC(=O)[C@H](CC(=O)O)NC2=O (stereo partly drawn) [I-1263, Ac-PL3-Asp-Npg-B5-Asp-Thr-Ala-Ala-Phe-Thr-PyrS2-Phe-BztA-Ser-NH2] | 20000 nM | 43 nM | 12 µM (≈ 22.1 µg/mL) |  | 
CC(=O)N1CCC[C@]12CC=CCCCC1(CCCC=CCCCOC(=O)N3CC[C@@](C(=O)N[C@@H](Cc4ccccc4Cl)C(=O)N[C@@H](Cc4csc5ccccc45)C(=O)N[C@H](C(N)=O)[C@@H](C)O)(C3)NC(=O)[C@H](CC(C)C)NC(=O)[C@H](Cc3ccccc3)NC(=O)[C@H](C)NC(=O)[C@H](C)NC(=O)[C@H](CC(=O)O)NC(=O)[C@H](CC(=O)O)NC1=O)NC(=O)[C@H](Cc1ccccc1)NC(=O)[C@H](CC(=O)O)NC2=O (stereo partly drawn) [I-1145, Ac-PL3-Asp-Phe-B5-Asp-Asp-Ala-Ala-Phe-Leu-PyrS2-2C1F-BztA-Thr-NH2] | 30600 nM | 18 nM |  | 10 µM (≈ 19.4 µg/mL) | 
CC(=O)N1CCC[C@]12CC=CCCCC1(CCCC=CCCCOC(=O)N3CC[C@@](C(=O)N[C@@H](Cc4ccccc4Cl)C(=O)N[C@@H](Cc4csc5ccccc45)C(=O)N[C@@H](CO)C(N)=O)(C3)NC(=O)[C@H]([C@@H](C)O)NC(=O)[C@H](Cc3ccccc3)NC(=O)[C@H](CC(C)C)NC(=O)[C@H](C)NC(=O)[C@H](CC(=O)O)NC(=O)[C@H](CC(=O)O)NC1=O)NC(=O)[C@H](CC1CCCCC1)NC(=O)[C@H](CC(=O)O)NC2=O (stereo partly drawn) [I-1151, Ac-PL3-Asp-Cha-B5-Asp-Asp-Ala-Leu-Phe-Thr-PyrS2-2C1F-BztA-Ser-NH2] | 25300 nM | 30 nM |  | 10 µM (≈ 19.6 µg/mL) | 
CC(=O)N1CCC[C@]12CC=CCCCC1(CCCC=CCCCOC(=O)N3CC[C@@](C(=O)N[C@@H](Cc4ccsc4)C(=O)N[C@@H](Cc4csc5ccccc45)C(=O)N[C@@H](CCC(N)=O)C(N)=O)(C3)NC(=O)[C@H](CC(C)C)NC(=O)[C@H](Cc3cccc(C#N)c3)NC(=O)[C@H](C)NC(=O)[C@H](C)NC(=O)[C@H](CC(=O)O)NC(=O)[C@H](CC(=O)O)NC1=O)NC(=O)[C@H](CC(C)(C)C)NC(=O)[C@H](CC(=O)O)NC2=O (stereo partly drawn) [I-1201, Ac-PL3-Asp-Npg-B5-Asp-Asp-Ala-Ala-3CNF-Leu-PyrS2-3Thi-BztA-Gln-NH2] | 19600 nM | 13 nM | 47 µM (≈ 91.3 µg/mL) |  | 
CC(=O)N1CCC[C@H]1C(=O)N[C@@H](CC(=O)O)C(=O)N[C@@H](CC(C)(C)C)C(=O)N[C@]1(C)CCCC=CCCCOC(=O)N2CC[C@@](C(=O)N[C@@H](Cc3ccsc3)C(=O)N[C@@H](Cc3csc4ccccc34)C(=O)N[C@@H](CCC(N)=O)C(N)=O)(C2)NC(=O)[C@H](CC(C)C)NC(=O)[C@H](Cc2ccccc2)NC(=O)[C@H](C)NC(=O)[C@H](C)NC(=O)[C@H](CC(=O)O)NC(=O)[C@H](CC(=O)O)NC1=O [I-1181, Ac-Pro-Asp-Npg-R5-Asp-Asp-Ala-Ala-Phe-Leu-PyrS2-3Thi-BztA-Gln-NH2] | > 20000 nM | 297 nM |  | 50 µM (≈ 92.6 µg/mL) | 226 nM

The next compounds have a lower IC50 [1] than those just listed; values first:

IC50 [1] | IC50 ([2]; read-out: beta-Catenin FP IC50) | Solubility ([3]; Solubility (uM)) | Solubility [3] | IC50 ([2]; beta-catenin, read-out: FP EC50) | SMILES
9100 nM | 86 nM | 28 µM (≈ 53.5 µg/mL) |  |  | CC(=O)N1CCC[C@]12CC=CCCCC1(CCCC=CCCCOC(=O)N3CC[C@@](C(=O)N[C@@H](Cc4ccsc4)C(=O)N[C@@H](Cc4csc5ccccc45)C(=O)N[C@H](CO)[C@@H](C)O)(C3)NC(=O)[C@H](Cc3ccccc3)NC(=O)[C@H](Cc3ccccc3)NC(=O)[C@H](C)NC(=O)[C@H](C)NC(=O)[C@H](CC(=O)O)NC(=O)[C@H](CC(=O)O)NC1=O)NC(=O)[C@H](CC(C)(C)C)NC(=O)[C@H](CC(=O)O)NC2=O (stereo partly drawn) [I-1303, Ac-PL3-Asp-Npg-B5-Asp-Asp-Ala-Ala-Phe-Phe-PyrS2-3Thi-BztA-Thro1]
5500 nM | 9 nM | 12 µM (≈ 24.2 µg/mL) |  |  | CC(=O)N1CCC[C@]12CC=CCCCC1(CCCC=CCCCOC(=O)N3CC[C@@](C(=O)N[C@@H](Cc4ccsc4)C(=O)N[C@@H](Cc4csc5ccccc45)C(=O)N[C@@H](CCC(N)=O)C(N)=O)(C3)NC(=O)[C@H](Cc3ccccc3C(F)(F)F)NC(=O)[C@H](Cc3ccccc3)NC(=O)[C@H](C)NC(=O)[C@H](C)NC(=O)[C@H](CC(=O)O)NC(=O)[C@H](CC(=O)O)NC1=O)NC(=O)[C@H](CC(C)(C)C)NC(=O)[C@H](CC(=O)O)NC2=O (stereo partly drawn) [I-1363, Ac-PL3-Asp-Npg-B5-Asp-Asp-Ala-Ala-Phe-2F3MeF-PyrS2-3Thi-BztA-Gln-NH2]
11900 nM | 25 nM | 47 µM (≈ 87 µg/mL) |  |  | CC(=O)N1CCC[C@]12CC=CCCCC1(CCCC=CCCCCCC[C@@](C)(C(=O)N[C@@H](Cc3ccccc3Cl)C(=O)N[C@@H](Cc3csc4ccccc34)C(=O)N[C@H](CO)[C@@H](C)O)NC(=O)[C@H]([C@@H](C)O)NC(=O)[C@H](Cc3ccccc3)NC(=O)[C@H](C)NC(=O)[C@H](C)NC(=O)[C@H](CC(=O)O)NC(=O)[C@H](CC(=O)O)NC1=O)NC(=O)[C@H](CC(C)(C)C)NC(=O)[C@H](CC(=O)O)NC2=O (stereo partly drawn) [I-1308, Ac-PL3-Asp-Npg-B5-Asp-Asp-Ala-Ala-Phe-Thr-S8-2C1F-BztA-Thro1]
10500 nM | 9 nM | 17 µM (≈ 34.3 µg/mL) |  |  | CC(=O)N1CCC[C@]12CC=CCCCC1(CCCC=CCCCOC(=O)N3CC[C@@](C(=O)N[C@@H](Cc4ccsc4)C(=O)N[C@@H](Cc4csc5ccccc45)C(=O)N[C@@H](CCC(N)=O)C(N)=O)(C3)NC(=O)[C@H](Cc3cccc(C(F)(F)F)c3)NC(=O)[C@H](Cc3ccccc3)NC(=O)[C@H](C)NC(=O)[C@H](C)NC(=O)[C@H](CC(=O)O)NC(=O)[C@H](CC(=O)O)NC1=O)NC(=O)[C@H](CC(C)(C)C)NC(=O)[C@H](CC(=O)O)NC2=O (stereo partly drawn) [I-1364, Ac-PL3-Asp-Npg-B5-Asp-Asp-Ala-Ala-Phe-3F3MeF-PyrS2-3Thi-BztA-Gln-NH2]
10900 nM | 8 nM | 48 µM (≈ 92.6 µg/mL) |  |  | CC(=O)N1CCC[C@]12CC=CCCCC1(CCCC=CCCCOC(=O)N3CC[C@@](C(=O)N[C@@H](Cc4ccccc4F)C(=O)N[C@@H](Cc4csc5ccccc45)C(=O)N[C@@H](CCC(N)=O)C(N)=O)(C3)NC(=O)[C@H](CC(C)C)NC(=O)[C@H](Cc3ccccc3)NC(=O)[C@H](C)NC(=O)[C@H](C)NC(=O)[C@H](CC(=O)O)NC(=O)[C@H](CC(=O)O)NC1=O)NC(=O)[C@H](CC(C)(C)C)NC(=O)[C@H](CC(=O)O)NC2=O (stereo partly drawn) [I-1321, Ac-PL3-Asp-Npg-B5-Asp-Asp-Ala-Ala-Phe-Leu-PyrS2-2FF-BztA-Gln-NH2]
